The record followed here is patent publication US11279733B2, “Peptide antibiotics” (priority 2017, dated 2022).

The test system of one series is Neisseria gonorrhoeae. In words: MIC determination, Neisseria gonorrhoeae. The class given is cell-based. As to conditions: strain FA19 ATCC BAA-1838. Summed up:
(§1)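 Mid-log cultures grown in Mueller Hinton broth at 37° C were tested by 2-fold broth microdilution at 5×10^5 CFU/mL final. Compounds were dissolved in water and tested over a final range of 32 to 0.015 μg/mL.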

Series [1] can be described thus: In vitro nephrotoxicity, GGT release from primary human kidney cells. As to conditions: pH 7.4. The class given is cell-based. The text has this: (§2) hPT cells were derived from whole human kidneys procured by the International Institute for the Advancement of Medicine (Edison, N.J., USA). All tissue was scored by a pathologist as normal (i.e., derived from non-cancerous, non-diseased tissue). Cell isolation procedures were based on those originally described by Todd et al. (1996) and modified (Cummings and Lash, 2000; Cummings et al., 2000) with use of sterile conditions (i.e., all instruments and glassware were autoclaved and all buffers were filtered through a 0.2-μm pore-size filter). Renal cortex and outer stripe were cut into slices, washed with sterile PBS, minced, and the pieces were placed in a trypsinization flask filled with 300 ml of sterile, filtered Hanks' buffer, containing 25 mM NaHCO3, 25 mM HEPES, pH 7.4, 0.5 mM EGTA, 0.2% (w/v) bovine serum albumin, 50 μg/ml gentamicin, 1.3 mg/mL collagenase, and 0.59 mg/ml CaCl2), which was filtered prior to use. Whole kidneys were perfused with Wisconsin medium and kept on ice until they arrived at the laboratory, which was usually within 24 h of removal from the donor.
(§3) All buffers were continuously bubbled with 95% O2/5% CO2 and were maintained at 37° C. Minced cortical pieces from whole kidneys were subjected to collagenase digestion for 60 min, after which the supernatant was filtered through a 70-μm mesh filter to remove tissue fragments, centrifuged at 150×g for 7 min, and the pellet resuspended in Dulbecco's Modified Eagle's Medium: Ham's F12 Medium (DMEM/F12; 1/1). Approximately 5 to 7×10^6 cells were obtained per 1 g of human kidney cortical tissue.
(§4) hPT cells were resuspended in 2 mL of DMEM/F12 and diluted to 500 mL with cell culture medium, which was serum-free and hormonally-defined. Composition of this supplemented medium was based on earlier work establishing optimal conditions for primary culture of rat PT cells (Lash et al., 1995). Basal medium was a 1:1 mixture of DMEM/F12. […] Cells were seeded in a volume of 0.5 ml at a density of 50-100 μg protein per cm^2 (0.5-1.0×10^6 cells/ml) on 24-well plates. Cultures were grown at 37° C. in a humidified incubator under an atmosphere of 95% air/5% CO2 at pH 7.4. Cultures were grown to approximately 80%-90% confluence (generally 5-6 days) prior to experiments. Cells were harvested by either scraping the flasks with a Teflon scraper or by brief incubation with Cellstripper (Cellgro, Herndon, Va., USA) (in Ca^2+- and Mg^2+-free Hanks' buffer).
Release of gamm-glutanyltransferase was assessed according to Orlowski, M., Meister, A. 1963. γ-Glutamyl-p-nitroanilide: A new convenient substrate for determination and study of L- and D-γ-glutamyltranspeptidase activities (Biochim. Biophys. Acta 73: 679-681.)
A 2.5 mM substrate Solution was prepared from 67 mg γ-glutamyl-p-nitroanilide+264 mg glycylglycine in 100 mL of 0.05 M Tris, pH 8.2 (50 mM Tris, pH 8.2: 605 mg Tris/HCl per 100 mL).
For the assay in 96-well plates, 6-μL of sample and 0.3 mL substrate solution were added to each well. The absorbance was measured at 410 nm for the appearance of product, p-nitroanilide (molar extinction=8800 M^−1 cm^−1).

Series [2] in a line: In vitro nephrotoxicity, LDH release from primary human kidney cells. The class given is cell-based. Conditions: pH 7.4.
From the text: as §2, §3, §4
(In general: LDH in the medium is a marker of cell lysis.)

The test system of a further series is K. pneumoniae ATCC 13883. As to conditions: ATCC 13883. Summed up: as §1
The subject of the next series is P. aeruginosa ATCC 27853. Conditions: ATCC 27853. The method, boiled down:
as §1

The subject of series [3] is K. pneumoniae ATCC BAA-2146, NDM-1 pos. As to conditions: ATCC BAA-2146. The method, boiled down:
as §1

Series [4] relates to S. aureus ATCC 25923, MSSA. Conditions: ATCC 25923. The method, boiled down: as §1
The test system of a further series is A. baumannii GN_093 PmxR. As to conditions: GN 093 PmxR. The method, boiled down: as §1
Series [5] has as its system K. pneumoniae GN_102 PmxR. Conditions: GN 102 PmxR. The method, boiled down:
as §1

Series [6] concerns K. pneumoniae ATCC 700603, MDR. Conditions: ATCC 700603. Summed up: as §1
Another series relates to A. baumannii ATCC 19606. As to conditions: ATCC 19606. The method, boiled down:
as §1

The subject of series [7] is P. aeruginosa GN_105, PmxR. As to conditions: GN 105, PmxR. Summed up: as §1
Another series concerns E. coli ATCC 25922. As to conditions: ATCC 25922. The method, boiled down: as §1
For series [8], the system named is P. aeruginosa GN_043, PmxR. The method, boiled down:
as §1

The test system of series [9] is K. pneumoniae GN_106, PmxR. As to conditions: GN 106, PmxR. Summed up:
as §1

SMILES strings stand for the structures. Values after ≈ are worked out from the molar mass of the structure shown. Like-named read-outs stand apart in the source and are kept apart here. Starred links: 1 amine or outer side, 2 acyl side, 3 side chain; linkers in the order of their positions; H or OH if unused. Positions of bridges follow the written chain, without caps; N, C: chain ends. Non-standard residues stand in square brackets, D forms with d. Residues, ends and D or L forms follow the SMILES beside them. *: point of attachment. Decanoyl(3R-OH) = CCCCCCC[C@@H](O)CC(=O)*; azaDab = NCCN(N[*:1])C(=O)[*:2]; dDab = NCC[C@@H](N)C(=O)O; Dab = NCC[C@H](N)C(=O)O

A word on the CC50: it is the concentration that lowers cell viability or growth by half. Read a low CC50 as harm at low concentration. Consider `CCCCCCC[C@@H](O)CC(=O)NN(CCN)C(=O)N[C@H]1CCNC(=O)[C@H](CC(C)C)NC(=O)[C@H](CCN)NC(=O)[C@H](CCN)NC(=O)[C@H](CC(C)C)NC(=O)[C@@H](Cc2ccccc2)NC(=O)[C@H](CCN)NC1=O` [compound 8639, 3(R)OH-nC9CO-azaDab-cyc[L-Dab-L-DAB-D-Phe-L-Leu-L-Dab-L-Dab-L-Leu]] ({Decanoyl(3R-OH)}-[azaDab][Dab][Dab][dF]L[Dab][Dab]L; lactam 2-C), for which the “MIC N. gonorrhoeae FA19 ATCC BAA-1838” value in the series with Neisseria gonorrhoeae amounted to 0.78 µg/mL (≈ 0.746 µM). For the same molecule, the CC50 in series [1] and in [2] was > 128 µg/mL in each case. The “MIC K. pneumoniae ATCC 13883” value in the series with K. pneumoniae ATCC 13883 is 4 µg/mL (≈ 3.83 µM). In the series with P. aeruginosa ATCC 27853, the “MIC P. aeruginosa ATCC 27853” value came to 2 µg/mL (≈ 1.91 µM). In addition, the “MIC K. pneumoniae ATCC BAA-2146, NDM-1 pos” value in series [3] is 4 µg/mL (≈ 3.83 µM). Also, the “MIC S. aureus ATCC 25923, MSSA” value in [4] was 8 µg/mL (≈ 7.65 µM). In addition, in the series on A. baumannii GN_093 PmxR, the “MIC A. baumannii Cl Ptyela 10073 4512:2, PmxR” value came out at 8 µg/mL (≈ 7.65 µM). The “MIC K. pneumoniae Cl Koprana 10065 0661:1 PmxR” value in series [5] was 2 µg/mL (≈ 1.91 µM). In addition, the “MIC K. pneumoniae ATCC 700603, MDR” value in [6] came to 2 µg/mL (≈ 1.91 µM). Moreover, the “MIC A. baumannii ATCC 19606” value in the series on A. baumannii ATCC 19606 turned out to be 4 µg/mL (≈ 3.83 µM). Further, the “MIC P. aeruginosa PA9704, PmxR” value in series [7] is 2 µg/mL (≈ 1.91 µM). Also, the “MIC E. coli ATCC 25922” value against E. coli ATCC 25922 came to 2 µg/mL (≈ 1.91 µM). For the same molecule, the “MIC, P. aeruginosa FADDI-PA070, PmxR” value in series [8] (strain name as in Table 11) was 2 µg/mL (≈ 1.91 µM). Further, in series [9], the “MIC K. pneumoniae Cl 183-16357-20352, PmxR” value was determined as 2 µg/mL (≈ 1.91 µM).

Regarding `CCCCCCC[C@@H](O)CC(=O)N[C@H](CCN)C(=O)N[C@H]1CCNC(=O)[C@H](CC(C)C)NC(=O)[C@H](CCN)NC(=O)[C@H](CCCNC(=N)N)NC(=O)[C@H](CC(C)C)NC(=O)[C@@H](Cc2ccccc2)NC(=O)[C@H](CCN)NC1=O` [compound 8733, 3(R)OH-nC9CO-D-Dab-cyc[L-Dab-L-DAB-D-Phe-L-Leu-L-Arg-L-Dab-L-Leu]] ({Decanoyl(3R-OH)}-[dDab][Dab][Dab][dF]LR[Dab]L; lactam 2-C), in the series with Neisseria gonorrhoeae, the “MIC N. gonorrhoeae FA19 ATCC BAA-1838” value turned out to be 0.78 µg/mL (≈ 0.709 µM). Further, the CC50 in series [1] and in series [2] was > 128 µg/mL throughout. Also, in the series with K. pneumoniae ATCC 13883, the “MIC, K. pneumoniae ATCC 13883” value was determined as 2 µg/mL (≈ 1.82 µM). Besides, in the series with P. aeruginosa ATCC 27853, the “MIC, P. aeruginosa ATCC 27853” value amounted to 2 µg/mL (≈ 1.82 µM). The “MIC, K. pneumoniae ATCC BAA-2146, NDM-1 pos” value in series [3] was 4 µg/mL (≈ 3.63 µM). In addition, in [4], the “MIC, S. Aureus ATCC 25923, MSSA” value is 8 µg/mL (≈ 7.27 µM). The “MIC, A. baumannii Cl Ptyela 10073 4512:2, PmxR” value against A. baumannii GN_093 PmxR is 8 µg/mL (≈ 7.27 µM). Besides, the “MIC, K. pneumoniae Cl Koprana 10065 0661:1, PmxR” value in [5] is 2 µg/mL (≈ 1.82 µM). In addition, the “MIC, K. pneumoniae ATCC 700603, MDR” value in [6] was determined as 2 µg/mL (≈ 1.82 µM). For the same molecule, the “MIC, A. baumannii ATCC 19606” value in the series with A. baumannii ATCC 19606 came to 4 µg/mL (≈ 3.63 µM). Also, the “MIC, P. aeruginosa PA9704, PmxR” value in series [7] was determined as 2 µg/mL (≈ 1.82 µM). Further, the “MIC, E. coli ATCC 25922” value against E. coli ATCC 25922 turned out to be 2 µg/mL (≈ 1.82 µM). For the same molecule, the “MIC, P. aeruginosa FADDI-PA070, PmxR” value in [8] (Table 5, polymyxin-resistant) came to 2 µg/mL (≈ 1.82 µM). Further, the “MIC, K. pneumoniae Cl 138-16347-20362, PmxR” value in [9] was found to be 2 µg/mL (≈ 1.82 µM).
